Test results: patent EP1064941A1, “Use of melatoninergic ligands for obtaining pharmaceutical compositions for the prevention or the treatment of gastrointestinal pathologies” (ADIR ET COMPAGNIE, priority 1999, dated 2001)

Experiments:
Type in all cases: in vivo
[1] = system: complexes myoélectriques intestinaux; test: Effects of melatoninergic ligands on intestinal myoelectric complexes in the rat (electrodes implanted on the intestinal wall); settings: male Wistar rats
Experimental: Des rats mâles Wistar adultes placés en cycle lumière/obscurité 12h/12h sont implantés sous anesthésie d'électrodes sur la paroi de l'intestin afin d'enregistrer l'activité myoélectrique. Les rats ont un accès limité (30 min) à la nourriture pendant la période diurne.
Les composés de l'invention agonistes mélatoninergiques ou la mélatonine sont administrés par voie intraveineuse à la dose de 1 mg/kg, 10 min avant le repas. […] Ces complexes myoélectriques apparaissent tout d'abord sur le duodénum avec un délai de 50 min puis ils se propagent sur le jéjunum et l'iléon.

[2] = system: durée de la réponse postprandiale; test: Effects of melatoninergic ligands on the duration of the postprandial response (irregular intestinal motor activity) in the rat; settings: male Wistar rats, 30 min before access to food
Experimental: Chez le rat, la durée de la réponse postprandiale évaluée par l'activité motrice irrégulière intestinale, est plus courte en période d'obscurité que pendant la période diurne et ceci pour une même quantité d'aliments ingérés. Afin de confirmer que cette diminution de la durée pouvait être due à la sécrétion nocturne de mélatonine, le protocole suivant a été réalisé : des rats mâles Wistar adultes habitués à un cycle lumière/obscurité 12h/12h sont implantés sous anesthésie d'électrodes sur la paroi de l'intestin afin d'enregistrer l'activité myoélectrique. Les rats ont un accès limité (30 min) à la nourriture soit pendant la période nocturne soit pendant la période diurne. Les molécules de l'invention sont administrées 30 min avant l'accès à la nourriture. Le paramètre évalués dans ces études est la durée de l'activité irrégulière motrice. Les périodes de complexes myoélectriques ne sont pas prises en compte dans le cas d'induction par la molécule testée.

[3] = system: inflammation intestinale induite par l'indométhacine; test: Indomethacin-induced intestinal inflammation model in the rat; settings: male Wistar rats, 50 mg/kg ip ten minutes before each of two indomethacin doses (7,5 mg/kg sc, 24 h apart)
Text: L'inflammation intestinale induite par administration d'indométhacine chez le rat est considérée comme un modèle animal physiopathologique présentant des modifications du comportement et de la motricité intestinale similaires à celles observées chez les patients atteints de la maladie de Crohn (Yamada T. et al, 1993, Mechanisms of acute and chronic intestinal inflammation induces by indomethacin, Inflammation, 17-6, 641-62; Gurbuz V. et al, 1999, Role of nitric oxide in indomethacin-induced gastric mucosal dysfunction in the rat, Experimental Physiology, 84, 319-332; Chen K. et al, 1999, Expression of NO II and its role in the experimental small bowel ulceration in rats, Surgery, 126, 553-561).
Des rats mâles Wistar adultes placés en cycle lumière/obscurité 12h/12h sont implantés sous anesthésie d'électrodes sur la paroi de l'intestin afin d'enregistrer l'activité myoélectrique. Les animaux sont divisés en plusieurs groupes.
Le groupe de rats témoins reçoit deux administrations d'indométhacine (7,5 mg/kg sc) espacées de 24 h. Les autres groupes de rats sont prétraités par la mélatonine ou un ligand mélatoninergique (50 mg/kg ip) dix minutes avant les deux administrations d'indométhacine.
Les animaux sont suivis sur le plan comportemental (prise alimentaire), physiologique (aspect du pelage, diarrhées) et motricité intestinale.

Compound	blocage de l'induction des complexes myoélectriques par l'agoniste ([1]; antagonist pretreatment 2 mg/kg subcutaneous, 30 min before the agonist)	durée de la réponse postprandiale nocturne ([2]; given 5 h after onset of darkness)	apparition de complexes myoélectriques pendant la réponse motrice postprandiale ([1]; 1 mg/kg intravenous, 10 min before the meal, daytime feeding (30 min access))	délai d'apparition des complexes myoélectriques sur le duodénum ([1]; 1 mg/kg intravenous, 10 min before the meal, complexes then propagate to jejunum and ileum) [min]	symptômes de l'inflammation intestinale (diarrhées, perte de poils, prise alimentaire, motricité intestinale) [3]	durée de la réponse postprandiale diurne ([2]; 100 µg/kg intravenous, given 4 h after onset of light)
CCc1ccc2scc(CCNC(C)=O)c2c1 [N-[2-(5-éthyl-1-benzothiophèn-3-yl)éthyl]acétamide]	empêche toute formation de complexe myoélectrique	entraîne un allongement de la réponse postprandiale qui devient d'une durée équivalente à la réponse observée le jour	–	–	–	–
COc1ccc2[nH]cc(CCNC(C)=O)c2c1 [mélatonine]	–	–	induisent l'apparition de complexes myoélectriques pendant la réponse motrice postprandiale	50	ne présentent plus de diarrhées, de perte de poils, de diminution de la prise alimentaire et de la motricité intestinale	réduit la durée de la réponse postprandiale et la ramène à une durée de type nocturne
